# In patent US10800816B2 (Baxalta GmbH, priority 2012, dated 2020):
# pIC50: −log10 of the molar value. Where two headings read alike, the source gives them in different places. *1 amine or outer side, *2 acyl side, *3 side chain or, on linkers, in order; H or OH if unused. Where a SMILES comes first, the peptide text is derived from it. Bridges are numbered along the chain shown (N, C = ends). Side-chain parts run from the residue outwards. [ ]: non-standard residue; d: D form. The star is where a group is joined. X1 = CCCCCCCCCCCCCC(=O)NCCCOCCOCCOCCCN*; Suc = O=C(CCC(=O)[*:2])[*:1]; Tle = CC(C)(C)[C@H](N)C(=O)O; Hexanoyl = CCCCCC(=O)*; Aib = CC(C)(N)C(=O)O; Acm = CC(=O)NC*
# Legend:
# [1] = system: Tissue Factor Pathway Inhibitor (TFPI); test: IC50 ELISA | Mean IC50 [nM]
# Text: Table printed on a drawing sheet, FIGURE 78V
# (§1) Head of the field: IC50 ELISA | Mean IC50 [nM]
# [2] = system: TFPI; test: IC50 ELISA | Mean IC50 [nM]
# Text: Table printed on a drawing sheet, FIGURE 78Z
# as §1
# First copying reader's note: Continued table: the first body row (45.67) belongs to a compound on the preceding sheet, the last row probably continues on the next sheet, and cells with several values list single replicates.
# [3] = system: TFPI; test: IC50 ELISA | Mean IC50 [nM]; remark: listed apart in the source
# [4] = system: TFPI; test: Progress Curves of Inhibition of FXa | % Inhibit (2.5µM)
# Method: Head of the field: Progress Curves of Inhibition of FXa | % Inhibit (2.5µM)
# “*” denotes negative controls.
# [5] = system: TFPI; test: Extrinsic Tenase Inhibition by TFPI | % Inhibit (2.5μM )
# [6] = system: TFPI; test: Progress Curves of Inhibition of FXa | % Inhibit (2.5μM)
# Method: Head of the field: Progress Curves of Inhibition of FXa | % Inhibit (2.5μM)
# [7] = system: TFPI; test: IC50 ELISA | Mean IC50 [nM]; remark: listed apart in the source
# [8] = system: TFPI; test: IC50 ELISA | Mean IC50 [nM]; remark: listed apart in the source
# [9] = system: Tissue Factor Pathway Inhibitor (TFPI); test: IC50 ELISA | Mean IC50 [nM]; remark: listed apart in the source
# [10] = system: TFPI; conditions: read-out: IC50 Mean
# [11] = system: Tissue Factor Pathway Inhibitor (TFPI); test: IC50 ELISA | IC50 [nM]
# Text: Table printed on a drawing sheet, FIGURE 78E
# (§2) Head of the field: IC50 ELISA | IC50 [nM]
# [12] = system: Tissue Factor Pathway Inhibitor (TFPI); test: IC50 ELISA | Mean IC50 [nM]; remark: listed apart in the source
# [13] = system: Tissue Factor Pathway Inhibitor (TFPI); test: IC50 ELISA | IC50 [nM]; remark: listed apart in the source
# Text: Table printed on a drawing sheet, FIGURE 78G
# as §2
# [14] = system: Tissue Factor Pathway Inhibitor (TFPI); test: IC50 ELISA | IC50 [nM]; remark: listed apart in the source
# Text: Table printed on a drawing sheet, FIGURE 78Q
# as §2
# [15] = system: Tissue Factor Pathway Inhibitor (TFPI); test: IC50 ELISA | Mean IC50 [nM]; remark: listed apart in the source
# [16] = FIGURE 78K
# Text: Table printed on a drawing sheet, FIGURE 78K
# [17] = FIGURE 78M
# [18] = FIGURE 78L
# Text: Table printed on a drawing sheet, FIGURE 78L
# [19] = system: Tissue Factor Pathway Inhibitor (TFPI); test: IC50 ELISA | Mean IC50 [nM]; remark: listed apart in the source
# [20] = FIGURE 78W
# Text: Table printed on a drawing sheet, FIGURE 78W
# [21] = system: Tissue Factor Pathway Inhibitor (TFPI); test: IC50 ELISA | IC50 [nM]; remark: listed apart in the source
# Text: Table printed on a drawing sheet, FIGURE 78R
# as §2
# [22] = system: TFPI; test: Progress Curves of Inhibition of FXa | % Inhibit (2.5µM); remark: listed apart in the source
# [23] = system: TFPI; test: as above; remark: listed apart in the source
# [24] = system: TFPI; test: Extrinsic Tenase Inhibition by TFPI | % Inhibit (2.5µM)
# [25] = system: TFPI; test: Extrinsic Tenase Inhibition assay | % Inhibition @ 2.5µM
# [26] = system: Tissue Factor Pathway Inhibitor (TFPI); test: IC50 ELISA | Mean IC50 [nM]; remark: listed apart in the source
# [27] = system: FIX knock-out mice; test: Tail-tip bleed model in FIX knock-out mice; assay type: in vivo, mouse
# Method: JBT2329 also was tested in a FIX knock-out tail-tip bleed mouse model, which is a clinically-relevant model for hemophilia B human patients. The methodology was substantially similar to that described above with respect to the FVIII knock-out model. Instead of ADVATE, a recombinant FIX (rFIX) served as a reference. Median total blood loss in buffer-treated animals was 935 mg. Median total blood loss in animals treated with a murine anti-TFPI antibody (maTFPI) was 774 mg. Median total blood loss was reduced further when the animals received combined treatment of maTFPI and rFIX.
compound,measurement,setting,value
"CC(=O)N[C@@H](Cc1ccccc1)C(=O)N[C@@H](CCC(N)=O)C(=O)N[C@@H](CO)C(=O)N[C@@H](CCCCN)C(=O)N1CCC[C@@H]1C(=O)N[C@@H](CC(N)=O)C(=O)N[C@H](C(=O)N[C@@H](Cc1c[nH]cn1)C(=O)N[C@H](C(=O)N[C@@H](CC(=O)O)C(=O)N[C@@H]1CSSC[C@@H](C(=O)N[C@@H](CCCNC(=N)N)C(=O)N[C@@H](CC(C)C)C(=O)NC(C)(C)C(=O)N[C@@H](C)C(=O)N[C@@H](CCCCN)C(=O)N[C@@H](CC(C)C)C(N)=O)NC(=O)[C@H](Cc2ccccc2)NC(=O)[C@H](Cc2ccc(O)cc2)NC1=O)C(C)(C)C)C(C)C [JBT00002495, Ac-FQSKpNVH-Tle-D[cYFC]RL-Aib-AKL-NH2] (Ac-FQSK[dP]NVH[Tle]D[dC]YFCRL[Aib]AKL-NH2; disulfide 11-14)",pIC50,[1],8.47
"CCCCCCCCCCCCCC(=O)NCCCOCCOCCOCCCNC(=O)CCC(=O)NCCCC[C@H](NC(=O)[C@H](CC(C)C)NC(=O)[C@H](CCCCN)NC(=O)[C@H](C)NC(=O)C(C)(C)NC(=O)[C@H](CC(C)C)NC(=O)[C@H](CCCNC(=N)N)NC(=O)[C@H](CCC(=O)O)NC(=O)[C@H](Cc1ccccc1)NC(=O)[C@H](Cc1ccc(O)cc1)NC(=O)[C@@H](C)NC(=O)[C@H](CC(=O)O)NC(=O)[C@@H](NC(=O)[C@H](Cc1c[nH]cn1)NC(=O)[C@@H](NC(=O)[C@H](CSCNC(C)=O)NC(=O)[C@H]1CCCN1C(=O)[C@H](CCCCN)NC(=O)[C@H](CO)NC(=O)[C@H](CCC(N)=O)NC(=O)[C@H](Cc1ccccc1)NC(=O)CCCCC)C(C)C)C(C)(C)C)C(N)=O [JBT00002531, Hex-FQSKp-Cys(Acm)-VH-Tle-DaYFERL-Aib-AKLK(Ttds- Myr)--NH2] (Hexanoyl-FQSK[dP]C(Acm)VH[Tle]D[dA]YFERL[Aib]AKLK([Suc-X1])-NH2)",pIC50,[2],7.57
same,pIC50,[3],7.56
(Ac-FQSKpNVHVDGYFERL-Aib-AKLC-NH2)2-M2PEG2000 [JBT00002523],pIC50,[3],8.99
Ac- KKLTGDWTYFWSKVIWGPGVIERQMPVSTFH KK-NH2 (SEQ ID NO: 3065) (Ac-KKLTGDWTYFWSKVIWGPGVIERQMPVSTFHKK-NH2) [JBT0177*],Progress Curves of Inhibition of FXa | % Inhibit ([…]),[4],4%
Ac- KKPLAVQLHVSKRSKEMALARLYYKTSKK- NH2 (SEQ ID NO: 2129) (Ac-KKPLAVQLHVSKRSKEMALARLYYKTSKK-NH2) [JBT0229],Extrinsic Tenase Inhibition by TFPI | % Inhibit ([…]),[5],0%
same,Progress Curves of Inhibition of FXa | % Inhibit ([…]),[6],0%
Ac- KKVGSVTRWSMYGPIFIKFTWTLEQPVGWDH KK-NH2 (SEQ ID NO: 3056) (Ac-KKVGSVTRWSMYGPIFIKFTWTLEQPVGWDHKK-NH2) [JBT0176*],Progress Curves of Inhibition of FXa | % Inhibit ([…]),[4],0%
Ac-FQSK-Nmg-NVFVFGYFERLRAKL-NH2 [JBT00000500],pIC50,[7],7.03
Ac-FQSK-Nmg-NVFVTGYFERL-Aib-AKL-NH2 [JBT00001585],pIC50,[8],7.82
Ac-FQSK-nma-NVHVDGYFERL-Aib-AKL-NH2 [JBT00002280],pIC50,[9],8.34
Ac-FQSKGNVFVDGYFERL-Aib-AKLC(PEG)-NH2 [JBT00001855],pIC50,[8],6.92
Ac-FQSKGNVFVTGYFDRLRAKL-NH2 [JBT0775 | 69],pIC50,[10],7.66
Ac-FQSKKNVFV-NH2 [JBT00002258],pIC50,[11],< 5.30
Ac-FQSKp-C(Acm)-VH-Tle-D[cY-Bta--Hcy-]RL-Aib-AKL- NH2 [JBT00002501],pIC50,[12],8.20
Ac-FQSKp-C(NEM)-VH-Tle-DaY-Bta-ERL-Aib-AKL-NH2 [JBT00002502],pIC50,[12],8.41
Ac-FQSKp-Nmn-VHVDGYFERL-Aib-AKL-NH2 [JBT00002287],pIC50,[13],< 6.30
Ac-FQSKpN-Chg-H-Chg-DGYFERL-Aib-AKL-NH2 [JBT00002295],pIC50,[13],< 5.30
Ac-FQSKpN-Phg-H-Phg-DGYFERL-Aib-AKL-NH2 [JBT00002298],pIC50,[13],< 5.30
Ac-FQSKpNVH-Tle-D-hcy-YF-Hcy-RL-Aib-AKL-NH2 [JBT00002497],pIC50,[1],8.15
Ac-FQSKpNVH-Tle-D-hcy-YFCRL-Aib-AKL-NH2 [JBT00002498],pIC50,[1],8.12
Ac-FQSKpNVH-Tle-DGYFERL-Aib-A-Nmk-L-NH2 [JBT00002425],pIC50,[14],< 6.30
Ac-FQSKpNVH-Tle-DcY-Bta--Hcy-RL-Aib-AKL-NH2 [JBT00002500],pIC50,[12],8.28
Ac-FQSKpNVHVDGYFERL-Aib-AKLC(ME-50MA)-NH2 [JBT00002325],pIC50,[15],8.18
Ac-FQSKpNVHVDGYFERL-Aib-AKLC(ME-120MA)-NH2 [JBT00002326],pIC50,[15],8.03
Ac-FQSKpNVHVDGYFERL-Aib-AKLC(ME-400MA)-NH2 [JBT00002329],24 h Human Plasma Stability | Mean Remaining [%],[16],69.50%
same,24 h Mouse Plasma Stability | Mean Remaining [%],[16],69.50%
same,24 h Human Plasma Stability | Mean Remaining [%],[17],59.30%
same,24 h Mouse Plasma Stability | Mean Remaining [%],[17],56.70%
same,24 h Human Plasma Stability | Mean Remaining [%],[18],62.90%
same,24 h Mouse Plasma Stability | Mean Remaining [%],[18],81.80%
Ac-FQSKpNVHVDGYFERL-Egz-AKL-NH2 [JBT00002302],pIC50,[19],8.57
Ac-FQSKpNVHVPcYF-Hcy-RL-Aib-AKL-NH2 [JBT00002499],24 h Human Plasma Stability | Mean Remaining [%],[20],40.70%
Ac-FQVH-Tle-DGYFERL-Aib-AKL-NH2 [JBT00002428],pIC50,[14],< 6.30
Ac-FqVH-Tle-DGYFERL-Aib-AKL-NH2 [JBT00002429],pIC50,[21],< 6.30
Ac-KWFCGMRDMKGTMSCVWVKFRYDTS- [JBT0324],Progress Curves of Inhibition of FXa | % Inhibit ([…]),[22],0%
Ac-SGGRKHKHFLRSNGKPSRALSS-NH2 (SEQ [JBT0424],Progress Curves of Inhibition of FXa | % Inhibit ([…]),[23],1%
same,Extrinsic Tenase Inhibition by TFPI | % Inhibit ([…]),[24],0%
Ac-SRYKWFGMR[CDMKGC]TMSVWVKF-NH2 (SEQ ID NO: 1162) (Ac-SRYKWFGMRCDMKGCTMSVWVKF-NH2; disulfide 10-15; SMILES CSCC[C@H](NC(=O)CNC(=O)[C@H](Cc1ccccc1)NC(=O)[C@H](Cc1c[nH]c2ccccc12)NC(=O)[C@H](CCCCN)NC(=O)[C@H](Cc1ccc(O)cc1)NC(=O)[C@H](CCCNC(=N)N)NC(=O)[C@H](CO)NC(C)=O)C(=O)N[C@@H](CCCNC(=N)N)C(=O)N[C@H]1CSSC[C@@H](C(=O)N[C@H](C(=O)N[C@@H](CCSC)C(=O)N[C@@H](CO)C(=O)N[C@H](C(=O)N[C@@H](Cc2c[nH]c3ccccc23)C(=O)N[C@H](C(=O)N[C@@H](CCCCN)C(=O)N[C@@H](Cc2ccccc2)C(N)=O)C(C)C)C(C)C)[C@@H](C)O)NC(=O)CNC(=O)[C@H](CCCCN)NC(=O)[C@H](CCSC)NC(=O)[C@H](CC(=O)O)NC1=O) [JBT0470],Extrinsic Tenase Inhibition assay | % Inhibition @ […],[25],2%
FAM-Ttds-FQSK-Nmg-NVFVDGYFERL-Aib-AKL-NH2 [JBT00002262],pIC50,[26],7.87
Palm-FQSKpNVH-Tle-DaYFERL-Aib-AKL-NH2 [JBT00002440],pIC50,[21],< 6.30
rFIX: a recombinant FIX,Median total blood loss,[27]; 10 IU/kg rFIX alone,888 mg
same,Median total blood loss,[27]; 25 IU/kg rFIX alone,774 mg
